Measured values reported in US20200129476A1, “PARP Inhibitor in Combination with a Glucocorticoid and/or Ascorbic Acid and/or a Protein Growth Factor for the Treatment of Impaired Wound Healing” (AKRIBES BIOMEDICAL GMBH, priority 2017, published 2020).
“Also recorded” adds a separate entry of the source.

Experiments:
[1] = test system: primary human dermal fibroblasts (HDF); experiment: Fibroblast-derived matrix (FDM) formation assay (3D), with or without wound exudate; format: cell-based
Experimental: HDF cells were seeded at 5000 cells/well on day −3 into 96-well tissue culture plates (1250 cells/well for 384-well plates), which had been pre-coated for 1 hour at 37° C. with 0.2% gelatin solution (Sigma). When the cells reached confluence (=day 0), a matrix promoting supplement (vitamin C: 2-phospho-L-ascorbic acid trisodium salt, 100 μg/ml; Sigma) was added together with test samples containing PDGF-BB, TGF-ß1 or graded concentrations of compounds −/+WE as described for the HDF proliferation assay. After 4 days, medium was replaced by fresh vitamin C- and stimulus- as well as compound-containing medium, maintaining the conditions initiated on day 0. TGF-ß1 and PDGF-BB were included as positive controls to promote FDM formation and cell growth, respectively. After a total incubation time of 8 days, FDM production was measured in fixed cultures via SRB staining and evaluated as described above. In some cases, the experiment was stopped and evaluated already on day 4.
Low molecular weight compounds (see list in Table 1) were dissolved in DMSO (Bioreagent for cell culture, Sigma) at 10 mM or 100 mM and diluted at least 1:1000 in medium for cellular assays (final DMSO concentration ≤0.1%). Compounds were typically tested in half-logarithmic dilution series (1:3.33), starting at 10 μM or 100 μM as the highest compound concentration.
Cells were incubated with compounds for 72 hours in proliferation assays and up to 8 days for FDM assay (refreshed after 4 days). When compounds were tested for their effect on WE stimulation, the incubation of cells with compounds was started and ended simultaneously with WE-incubation.

[2] = test system: IL-1α; experiment: Fibroblast-macrophage coculture with wound exudate: IL-1α; format: cell-based, human; conditions: WE #78; veliparib 10 μM, talazoparib 0.1 μM
Experimental: CD14^+ monocytes, isolated from PBMC of healthy donors by magnetic bead separation were incubated either alone or in the presence of primary human dermal fibroblasts (CelINTec) or fibroblast-derived matrices (FDM). FDM had been generated from primary human dermal fibroblasts by a 3-week incubation with the growth supplements vitamin C or insulin and EGF (vitamin C: 2-phospho-L-ascorbic acid trisodium salt, 100 μg/ml; human EGF, 5 ng/ml; human insulin, 5 μg/ml). Alternatively, fibroblast monolayer cultures can be used as well. After 4 days to a week to allow for macrophage differentiation in the presence or absence of M-CSF (25 ng/ml), the cultures were stimulated overnight with graded concentrations of test compounds in the absence or presence of various dilutions of sterile-filtered WE. IFN-g (50 ng/ml), LPS (100 ng/ml) and IL-4 (25 ng/ml) or combinations thereof served as controls for M1 and M2 macrophage induction. For negative control samples, medium was added instead of specific stimuli. WE were added to the culture medium for overnight stimulation at dilutions ranging from 1:25 to 1:100.
Supernatants were harvested and frozen for cytokine determination by ELISA, and cells were harvested and subjected to FACS analysis, gating on the monocyte population. Geometric means or mean fluorescence intensities (MFI) were used to quantify surface marker expression. […]

[3] = test system: alpha-smooth muscle actin (α-SMA); experiment: Immunolocalization of alpha-smooth muscle actin in 2D fibroblast culture (myofibroblast differentiation); format: cell-based, human
Experimental: Primary human dermal fibroblasts (HDF) were purchased from CELLnTEC, Bern. They were routinely grown in Dulbecco's modified Eagle's medium (DMEM) containing 10% FCS, 2 mM glutamine, and 100 U/ml penicillin/100 μg/ml streptomycin. Media, antibiotics, and glutamine were bought from Lonza. The cells were used at passage 5-15. Cells were trypsinized and seeded at 5000 cells/well in 200 μl into the inner wells of 96-well plates. The outer wells were loaded with sterile water. […] For control samples, 200p1 medium was added instead of specific stimuli. Alternatively, the cells were seeded into 384-well plates at 2500 cells/well directly together with test compounds or growth factors and WE or medium in a total volume of […].
After fixation with paraformaldehyde, the cells were incubated for 1 hour at room temperature with a monoclonal mouse-anti-human antibody against alpha-smooth muscle actin (α-SMA) from e-Bioscience, washed 3 times with PBS and developed with an Alexa Fluor-labelled donkey-anti-mouse IgG (Molecular Probes). The cells were washed 3 times with PBS and examined in a Zeiss ZEISS Observer.Z1 microscope, using the software AxioVision 48.

[4] = test system: IL-1ß; experiment: IL-1ß secretion by HDF in the presence of wound exudate (ELISA); format: cell-based, human; conditions: FIG. 22; WE #43 and #78 used with veliparib
Experimental: Primary human dermal fibroblasts (HDF) were purchased from CELLnTEC, Bern. They were routinely grown in Dulbecco's modified Eagle's medium (DMEM) containing 10% FCS, 2 mM glutamine, and 100 U/ml penicillin/100 μg/ml streptomycin. Media, antibiotics, and glutamine were bought from Lonza. The cells were used at passage 5-15. Cells were trypsinized and seeded at 5000 cells/well in 200 μl into the inner wells of 96-well plates. The outer wells were loaded with sterile water. The cells were allowed to adhere overnight and then incubated for 72 hours at 37° C. under the following conditions: graded compound concentrations or 20 ng/ml PDGF-BB (Tonbo Biosciences) in the absence or presence of different dilutions of sterile-filtered WE in medium. For control samples, 200p1 medium was added instead of specific stimuli. Alternatively, the cells were seeded into 384-well plates at 2500 cells/well directly together with test compounds or growth factors and WE or medium in a total volume of […].
At the end of the 72-hour incubation period, supernatants were removed for the determination of IL-1ß, and the cells were fixed with 4% paraformaldehyde (Morphisto) for 15 minutes at room temperature and washed 3 times with PBS. A control plate was fixed after the overnight adherence of the cells (day 1) to determine the starting cell number.
IL-1ß levels were determined with a commercial ELISA kit. The amount of IL-1ß contained in the wound exudate added to the cells was subtracted from the total IL-ß in the supernatants in order to determine the cytokine secreted by the cells.

C[C@]1(c2nc3c(C(N)=O)cccc3[nH]2)CCCN1 [veliparib, 2-((2R)-2-methylpyrrolidin-2-yl)-1H-benzimidazole-4-carboxamide]
FDM formation, veliparib combined with glucocorticoid ([1]; WE #49, non-diabetic, non-immunosuppressed patient (FIG. 8)): could be enhanced with glucocorticoids in another non-diabetic and non-immunosuppressed patient, but not vice versa; also recorded: could be enhanced with glucocorticoids, but not vice versa | FDM formation, veliparib combined with glucocorticoid ([1]; WE #78, patient with diabetes, immunosuppression after kidney transplantation (FIG. 7)): enhances the effect of glucocorticoids | FDM formation, combination of veliparib with dexamethasone versus each alone ([1]; WE present, microscopy (FIG. 6)): even superior to each substance alone | fibroblast-derived matrix (FDM) formation ([1]; presence of WE #78 (FIG. 9)): strong positive effect | fibroblast-derived matrix (FDM/ECM) formation ([1]; presence of wound exudate, WE not specified (FIG. 6: microscopy)): “cleaned up” WE-induced fibroblast matrix inhibition | IL-1α induced by wound exudate [2]: reduced | staining for α-SMA ([3]; absence of WE, TGF-ß 20 ng/ml, veliparib 10 μM): has no effect; also recorded: had no effect | staining for α-SMA, veliparib in combination with TGF-ß ([3]; presence of WE #78, veliparib 10 μM + TGF-ß 20 ng/ml): more strongly stained cells than veliparib alone | IL-1ß secretion induced by wound exudate [4]: reducing IL-1ß secretion
